Test results reported in US20230165865A1, “HETEROARYLDIHYDROPYRIMIDINE DERIVATIVES AND METHODS OF TREATING HEPATITIS B INFECTIONS” (Janssen Pharmaceutica NV, priority 2018, published 2023).

Experiments:
[1] = tested on: HBV; assay: Anti-viral assay in HepG2.2.15 cells: anti-HBV activity, HBV DNA in culture medium by qPCR; format: cell-based; details: HepG2.2.15 cells, 6 days treatment, HBV DNA by qPCR; read-out: EC50
In short: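 Cells in 2% FBS medium treated 6 days, compound and medium refreshed at day 3; 8-point 1:3 dilutions in triplicate, top 10 or 1 uM (antiviral) and 100 uM (cytotoxicity). Extracellular viral DNA quantified by qPCR, giving EC50 and CC50.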

[2] = Cytotoxicity determination in HepG2.2.15 cells (CCK-8 assay); format: cell-based; details: human, 6 days treatment, CCK-8, highest concentration 100 uM
In short: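 HepG2.2.15 cells (5,000/well, 2% FBS medium) were treated for 6 days, with medium and compound refreshed at day 3. Dosing was an 8-point 1:3 series from 100 uM, in triplicate. Viability was measured by CCK-8 after 2.5 h at 37 °C (A450, 630 nm reference), and CC50 was calculated.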

CCOC(=O)C1=C(CN2CCN3C(=S)N(CC(C)(C)C(=O)O)CC3C2)NC(c2nccs2)=N[C@H]1c1cccc(F)c1C (single isomer, unassigned) [Compound 1A]
EC50 [1]: 0.0063 µM | CC50 at 6 days [2]: 22.5 µM
